Measured values taken from PubChem BioAssay AID2060619 (Molecular Pharmacology Branch, DTP, NCI, 2025).
Several values for one entry are separate records, joined by “and”; a condition that tells them apart may be missing. Equal values may be shown once.

System: 323965-272-R-J2-PDC complex spheroid viability
Assay: Anticancer human tumor 323965-272-R-J2-PDC patient-derived pancreatic carcinoma cell line growth inhibition [CLK]
Conditions: for viability, T/C: stronger effect = lower value
Outline: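 Multi-cell-type spheroids combined patient-derived tumor cells with HUVEC endothelial cells and human mesenchymal stem cells. Paired agents were dosed in half-log steps down from about clinical Cmax, or from 10 microM where Cmax was unknown.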

[1] = curve of first compound, second compound 0.0316 µM
[2] = curve of first compound, second compound 0.1 µM
[3] = curve of first compound, second compound 0.316 µM
[4] = curve of first compound, second compound 1 µM
[5] = curve of first compound, second compound 3.16 µM
[6] = curve of first compound, second compound 10 µM
[7] = second compound 0.0316 µM, first compound 0.0316 µM
[8] = second compound 0.0316 µM, first compound 0.1 µM
[9] = second compound 0.0316 µM, first compound 0.316 µM
[10] = second compound 0.0316 µM, first compound 1 µM
[11] = second compound 0.0316 µM, first compound 3.16 µM
[12] = second compound 0.0316 µM, first compound 10 µM
[13] = second compound 0.1 µM, first compound 0.0316 µM
[14] = second compound 0.1 µM, first compound 0.1 µM
[15] = second compound 0.1 µM, first compound 0.316 µM
[16] = second compound 0.1 µM, first compound 1 µM
[17] = second compound 0.1 µM, first compound 3.16 µM
[18] = second compound 0.1 µM, first compound 10 µM
[19] = second compound 0.316 µM, first compound 0.0316 µM
[20] = second compound 0.316 µM, first compound 0.1 µM
[21] = second compound 0.316 µM, first compound 0.316 µM
[22] = second compound 0.316 µM, first compound 1 µM
[23] = second compound 0.316 µM, first compound 3.16 µM
[24] = second compound 0.316 µM, first compound 10 µM
[25] = second compound 1 µM, first compound 0.0316 µM
[26] = second compound 1 µM, first compound 0.1 µM
[27] = second compound 1 µM, first compound 0.316 µM
[28] = second compound 1 µM, first compound 1 µM
[29] = second compound 1 µM, first compound 3.16 µM
[30] = second compound 1 µM, first compound 10 µM
[31] = second compound 3.16 µM, first compound 0.0316 µM
[32] = second compound 3.16 µM, first compound 0.1 µM
[33] = second compound 3.16 µM, first compound 0.316 µM
[34] = second compound 3.16 µM, first compound 1 µM
[35] = second compound 3.16 µM, first compound 3.16 µM
[36] = second compound 3.16 µM, first compound 10 µM
[37] = second compound 10 µM, first compound 0.0316 µM
[38] = second compound 10 µM, first compound 0.1 µM
[39] = second compound 10 µM, first compound 0.316 µM
[40] = second compound 10 µM, first compound 1 µM
[41] = second compound 10 µM, first compound 3.16 µM
[42] = second compound 10 µM, first compound 10 µM
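Also: spheroids exposed to agents for seven days before readout.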
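For viability, T/C in this document: percent of DMSO vehicle control wells so 100% = untreated growth.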

Structure (SMILES): COc1ccc([C@@H](O)c2cc(-c3ncnc4cc(N5CCOCC5)ccc34)c(F)cc2Cl)nn1 + CN1CCN(c2cc(C(=O)Nc3cc4cc(-c5cnn(C)c5)ccc4cn3)ccn2)CC1
- IC50 [1]: 7780 nM
- IC50 [2]: 3340 nM
- IC50 [3]: < 31.6 nM
- IC50 [4]: < 31.6 nM
- IC50 [5]: < 31.6 nM
- IC50 [6]: < 31.6 nM
- viability, T/C [7]: 94.2%
- viability, T/C [8]: 100%
- viability, T/C [9]: 84%
- viability, T/C [10]: 89.7%
- viability, T/C [11]: 68.8%
- viability, T/C [12]: 44.5%
- viability, T/C [13]: 70.5%
- viability, T/C [14]: 80.3%
- viability, T/C [15]: 62.9%
- viability, T/C [16]: 61.8%
- viability, T/C [17]: 51%
- viability, T/C [18]: 37.8%
- viability, T/C [19]: 21.9%
- viability, T/C [20]: 23.9%
- viability, T/C [21]: 22.8%
- viability, T/C [22]: 21.1%
- viability, T/C [23]: 19.1%
- viability, T/C [24]: 21.1%
- viability, T/C [25]: 4.14%
- viability, T/C [26]: 3.13%
- viability, T/C [27]: 4.35%
- viability, T/C [28]: 2.76%
- viability, T/C [29]: 3.07%
- viability, T/C [30]: 4.48%
- viability, T/C [31]: 4.01%
- viability, T/C [32]: 4.31%
- viability, T/C [33]: 6.05%
- viability, T/C [34]: 4.02%
- viability, T/C [35]: 5.21%
- viability, T/C [36]: 4.73%
- viability, T/C [37]: 4.33%
- viability, T/C [38]: 5.55%
- viability, T/C [39]: 4.42%
- viability, T/C [40]: 5.56%
- viability, T/C [41]: 5.95%
- viability, T/C [42]: 6.95%

Structure (SMILES): CC(Nc1ccc2c(c1)OCCn1cc(N3C(=O)OCC3C(F)F)nc1-2)C(N)=O (stereo not given) + CNC(=O)c1ccc(Nc2nc(OC3CCCC3)c3c(-c4ccc5nc(C)oc5c4)c[nH]c3n2)c(OC)c1
- IC50 [1]: > 10000 nM
- IC50 [2]: > 10000 nM
- IC50 [3]: 290 nM
- IC50 [4]: < 31.6 nM
- IC50 [5]: < 31.6 nM
- IC50 [6]: < 31.6 nM
- viability, T/C [7]: 110%
- viability, T/C [8]: 97.7%
- viability, T/C [9]: 80.4%
- viability, T/C [10]: 68.9%
- viability, T/C [11]: 64%
- viability, T/C [12]: 52%
- viability, T/C [13]: 89.7%
- viability, T/C [14]: 74.6%
- viability, T/C [15]: 73.9%
- viability, T/C [16]: 71.6%
- viability, T/C [17]: 58.4%
- viability, T/C [18]: 50.5%
- viability, T/C [19]: 63.6%
- viability, T/C [20]: 59.5%
- viability, T/C [21]: 48.5%
- viability, T/C [22]: 43.1%
- viability, T/C [23]: 39.9%
- viability, T/C [24]: 39.2%
- viability, T/C [25]: 43.4%
- viability, T/C [26]: 36.5%
- viability, T/C [27]: 33%
- viability, T/C [28]: 29.6%
- viability, T/C [29]: 30.1%
- viability, T/C [30]: 27.7%
- viability, T/C [31]: 34.8%
- viability, T/C [32]: 35.6%
- viability, T/C [33]: 30.7%
- viability, T/C [34]: 27.8%
- viability, T/C [35]: 30.7%
- viability, T/C [36]: 21.7%
- viability, T/C [37]: 42%
- viability, T/C [38]: 33.8%
- viability, T/C [39]: 28%
- viability, T/C [40]: 28.8%
- viability, T/C [41]: 28%
- viability, T/C [42]: 20.9%

Structure (SMILES): O=c1[nH]cc(F)c(=O)[nH]1 + CNC(=O)c1ccc(Nc2nc(OC3CCCC3)c3c(-c4ccc5nc(C)oc5c4)c[nH]c3n2)c(OC)c1
- IC50 [1]: > 10000 nM
- IC50 [2]: > 10000 nM
- IC50 [3]: 1900 nM
- IC50 [4]: < 31.6 nM
- IC50 [5]: < 31.6 nM
- IC50 [6]: < 31.6 nM
- viability, T/C [7]: 84.2%
- viability, T/C [8]: 91.9%
- viability, T/C [9]: 110%
- viability, T/C [10]: 91.4%
- viability, T/C [11]: 73.8%
- viability, T/C [12]: 55.4%
- viability, T/C [13]: 85.1%
- viability, T/C [14]: 80.5%
- viability, T/C [15]: 72.4%
- viability, T/C [16]: 65.6%
- viability, T/C [17]: 57.3%
- viability, T/C [18]: 53.1%
- viability, T/C [19]: 59.2%
- viability, T/C [20]: 59.9%
- viability, T/C [21]: 57.8%
- viability, T/C [22]: 48.3%
- viability, T/C [23]: 50.6%
- viability, T/C [24]: 41.6%
- viability, T/C [25]: 43.9%
- viability, T/C [26]: 41.1%
- viability, T/C [27]: 48.1%
- viability, T/C [28]: 38.2%
- viability, T/C [29]: 34.7%
- viability, T/C [30]: 29.3%
- viability, T/C [31]: 40.6%
- viability, T/C [32]: 36.8%
- viability, T/C [33]: 37.4%
- viability, T/C [34]: 36.9%
- viability, T/C [35]: 29.5%
- viability, T/C [36]: 27.2%
- viability, T/C [37]: 37.8%
- viability, T/C [38]: 42.7%
- viability, T/C [39]: 38.9%
- viability, T/C [40]: 37.6%
- viability, T/C [41]: 31.4%
- viability, T/C [42]: 31.3%

Structure (SMILES): CC(CO)NC(=O)c1cc(-c2ccc(Cl)cc2)nn(-c2cnn(C)c2)c1=O (stereo not given)
- viability, T/C (compound 0.0316 µM): 93.7% and 115%
- viability, T/C (compound 0.1 µM): 92.6% and 98.9%
- viability, T/C (compound 0.316 µM): 94.8% and 101%
- viability, T/C (compound 1 µM): 91.8% and 110%
- viability, T/C (compound 3.16 µM): 106% and 116%
- viability, T/C (compound 10 µM): 91.5% and 105%
- IC50 (curve of compound): > 10000 nM

Structure (SMILES): CC(=O)O[C@H]1C(=O)[C@@]2(C)[C@H]([C@H](OC(=O)c3ccccc3)[C@]3(O)C[C@H](OC(=O)[C@H](O)[C@@H](NC(=O)c4ccccc4)c4ccccc4)C(C)=C1C3(C)C)[C@]1(OC(C)=O)CO[C@@H]1C[C@@H]2O + CNC(=O)c1ccc(Nc2nc(OC3CCCC3)c3c(-c4ccc5nc(C)oc5c4)c[nH]c3n2)c(OC)c1
- IC50 [1]: < 31.6 nM
- IC50 [2]: < 31.6 nM
- IC50 [3]: > 10000 nM
- IC50 [4]: > 10000 nM
- IC50 [5]: < 31.6 nM
- IC50 [6]: < 31.6 nM
- viability, T/C [7]: 32.8%
- viability, T/C [8]: 40.5%
- viability, T/C [9]: 34.4%
- viability, T/C [10]: 33.2%
- viability, T/C [11]: 33.1%
- viability, T/C [12]: 36.9%
- viability, T/C [13]: 45.3%
- viability, T/C [14]: 42.7%
- viability, T/C [15]: 41.9%
- viability, T/C [16]: 37.9%
- viability, T/C [17]: 38.5%
- viability, T/C [18]: 38.5%
- viability, T/C [19]: 66.5%
- viability, T/C [20]: 68.7%
- viability, T/C [21]: 62.7%
- viability, T/C [22]: 67.7%
- viability, T/C [23]: 68.5%
- viability, T/C [24]: 76.1%
- viability, T/C [25]: 55.4%
- viability, T/C [26]: 60.1%
- viability, T/C [27]: 67.5%
- viability, T/C [28]: 63.2%
- viability, T/C [29]: 75.8%
- viability, T/C [30]: 74.5%
- viability, T/C [31]: 48.6%
- viability, T/C [32]: 53.5%
- viability, T/C [33]: 49.8%
- viability, T/C [34]: 56.1%
- viability, T/C [35]: 65.3%
- viability, T/C [36]: 60.4%
- viability, T/C [37]: 44.6%
- viability, T/C [38]: 49%
- viability, T/C [39]: 49.2%
- viability, T/C [40]: 55.8%
- viability, T/C [41]: 68.7%
- viability, T/C [42]: 60.4%
